Experimental data published in patent publication US10584122B2, “Solid forms of a compound modulating kinases” (Plexxikon Inc., priority 2015, dated 2020).
Read-outs that look alike come from different tables or passages of the source.

Key:
[1] = Physical stability, stress experiments (temperature/RH) with XRPD; format: physicochemical; details: for Physical stability (overall finding): at the conditions investigated, HCl salt
[2] = Dynamic vapor sorption/desorption (DVS); format: physicochemical; details: for Solid form after DVS, by XRPD: after sorption/desorption; for DVS weight loss upon equilibration: equilibration at 5% RH
Text: Moisture sorption/desorption data were collected on a VTI SGA-100 Vapor Sorption Analyzer under a nitrogen purge. […] Data were not corrected for the initial moisture content of the samples. Sodium chloride and polyvinypyrrolidine were used as calibration standards.

[3] = Slurry experiment, form conversion by XRPD; format: physicochemical; details: slurried in ethanol for 21 days
Procedure: Solutions were prepared by adding enough solids to a given solvent so that excess solids were present. The mixture was then agitated in a sealed vial at either ambient or a set temperature.

[4] = physchem; details: water, thermodynamic from solid

Cl.FC(F)(F)c1ccc(CNc2ccc(Cc3c[nH]c4ncc(Cl)cc34)cn2)cn1 [Compound I Form A, [5-(5-chloro-1H-pyrrolo[2,3-b]pyridin-3-ylmethyl)-pyridin-2-yl]-(6-trifluoromethyl-pyridin-3-ylmethyl)-amine HCl salt]
XRPD Result (solid form after stress) ([1]; 40° C./75% RH/14 d): A + C
XRPD Result (solid form after stress) ([1]; 80° C./7 d (<<100 mg)): converted to Form C
XRPD Result (solid form after stress) ([1]; RT/85% RH/14 d): A + minor C
Physical stability (overall finding) ([1]; listed as Form A): physically metastable
Form conversion on exposure to elevated humidity ([1]; elevated humidity): partial conversion to Form C
DVS additional weight gain, sorption step ([2]; above 75% RH): 1.7%
Solid form after DVS, by XRPD ([2]; listed as Form A, HCl salt): Form A
DVS weight gain, sorption step ([2]; from 5% to 75% RH): 0.6%
Hygroscopicity (DVS isotherm) ([2]; listed as Form A, HCl salt): hygroscopic
Form conversion on slurry [3]: complete conversion to Form C
solubility [4]: < 2000 µg/mL

Cl.FC(F)(F)c1ccc(CNc2ccc(Cc3c[nH]c4ncc(Cl)cc34)cn2)cn1 [Compound I Form B, [5-(5-chloro-1H-pyrrolo[2,3-b]pyridin-3-ylmethyl)-pyridin-2-yl]-(6-trifluoromethyl-pyridin-3-ylmethyl)-amine HCl salt]
Form conversion on heating ([1]; about 150° C. for about 5 minutes): Desolvation/conversion to Form C

Cl.FC(F)(F)c1ccc(CNc2ccc(Cc3c[nH]c4ncc(Cl)cc34)cn2)cn1 [Compound I Form C, [5-(5-chloro-1H-pyrrolo[2,3-b]pyridin-3-ylmethyl)-pyridin-2-yl]-(6-trifluoromethyl-pyridin-3-ylmethyl)-amine HCl salt]
Physical stability (overall finding) ([1]; listed as Form C): more physically stable than Form A
Solid form after DVS, by XRPD ([2]; listed as Form C, HCl salt): remained unchanged
DVS weight gain, sorption step ([2]; from 5% to 95% RH): 0.96%
Hygroscopicity (DVS isotherm) ([2]; listed as Form C, HCl salt): less hygroscopic than Form A

CO.Cl.FC(F)(F)c1ccc(CNc2ccc(Cc3c[nH]c4ncc(Cl)cc34)cn2)cn1 [Compound I Form D, [5-(5-chloro-1H-pyrrolo[2,3-b]pyridin-3-ylmethyl)-pyridin-2-yl]-(6-trifluoromethyl-pyridin-3-ylmethyl)-amine HCl salt methanol solvate]
Form conversion on heating ([1]; 80° C. for 15 minutes): desolvated to Form A
Form conversion on heating ([1]; continued exposure to 80° C. for 2 days): converted to Form C
DVS weight loss, desorption phase ([2]; desorption phase): 0.9%
DVS weight loss upon equilibration [2]: approximately 5.3%
DVS weight gain, sorption phase ([2]; sorption phase): 0.9%

FC(F)(F)c1ccc(CNc2ccc(Cc3c[nH]c4ncc(Cl)cc34)cn2)cn1 [Compound II, [5-(5-chloro-1H-pyrrolo[2,3-b]pyridin-3-ylmethyl)-pyridin-2-yl]-(6-trifluoromethyl-pyridin-3-ylmethyl)-amine]
Hygroscopicity (DVS isotherm) [2]: hygroscopic
DVS weight loss upon equilibration [2]: 0.3-0.4%
DVS weight gained ([2]; from 45% to 95% RH): ~21.6%
